From patent EP4722213A1, “NITROGEN-CONTAINING FUNCTIONAL GROUP-SUBSTITUTED PYRIDAZINOPYRIDONE DERIVATIVE AND USE THEREOF” (Sichuan Huiyu Pharmaceutical Co., Ltd., priority 2023, dated 2024)

Tests used:
[1] = Rat liver microsomal metabolic stability; type: in vitro ADME; conditions: rat liver microsomes; for half-life at 1 µM: NADPH, 37°C; for CLint scaled at 1 µM: calculated from T1/2, fu defaulted to 1, read-out: CL(liver)
From the text: Metabolic stability affects the clearance rate, half-life, and oral bioavailability of compounds in the body, and is one of the most important ADME drug-like properties of compounds. Hepatocyte microsomal stability assay is a commonly used method for studying metabolic stability. In the present disclosure, rat liver microsomes are used to determine and investigate the metabolic stability of compounds.
Preparation of compound stock solution: an appropriate amount of the test compound and testosterone was taken, and a 1 mM stock solution was prepared with DMSO, which was stored in a refrigerator at 4°C.
Preparation of compound working solution: The 1 mM compound stock solution was taken respectively, and then diluted to 100 µM with acetonitrile-water (v:v = 1:1) to obtain the working solution.
Preparation of NADPH working solution: an appropriate amount of NADPH was weighed and dissolved in 16 mM MgCl2 to prepare a NADPH working solution with a concentration of 4.0 mM.
Preparation of rat liver microsome working solution: an appropriate amount of rat liver microsomes was taken and diluted with PBS to obtain a liver microsome working solution with a concentration of 1 mg/mL.
In the incubation system, 48 µL of PBS, 100 µL of rat liver microsome working solution, and 2 µL of the test compound working solution were sequentially added and mixed well. After pre-incubation at 37°C for 5 min, 50 µL of NADPH was added to initiate the reaction. After incubation for the corresponding time points, an appropriate amount of ice-cold acetonitrile containing an internal standard was added to terminate the reaction. The mixture was vortexed to mix well, centrifuged, and the supernatant was collected. The supernatant was injected into LC-MS/MS for detection of the residual metabolic amount of the compound.
Softwares of Excel, etc. were used for data processing according to the following formula. Ct = C0 •e^(−ke •t) [formula] when Ct = (1)/(2)C0 [formula] , T1/2 = (Ln2)/(ke) = (0.693)/(ke) [formula] CLint(mic) = (0.693)/(In vitro T1/2)•(1)/(mg/mL microsomal protein in reaction system) [formula] CLint(liver) = CLint(mic) •(mg microsomes)/(g liver)•(g liver)/(kg body weight) [formula] CL(liver) = (CLint(liver)×fu×Qh)/(CLint(liver)×fu+Qh) [formula] fu (unbound fraction in blood) was defaulted to be 1.

SOS1 = target: T1, SOS1 (Homo sapiens, UniProt Q07889); assay: biochemical
T1 sequence (Q07889 1-1333): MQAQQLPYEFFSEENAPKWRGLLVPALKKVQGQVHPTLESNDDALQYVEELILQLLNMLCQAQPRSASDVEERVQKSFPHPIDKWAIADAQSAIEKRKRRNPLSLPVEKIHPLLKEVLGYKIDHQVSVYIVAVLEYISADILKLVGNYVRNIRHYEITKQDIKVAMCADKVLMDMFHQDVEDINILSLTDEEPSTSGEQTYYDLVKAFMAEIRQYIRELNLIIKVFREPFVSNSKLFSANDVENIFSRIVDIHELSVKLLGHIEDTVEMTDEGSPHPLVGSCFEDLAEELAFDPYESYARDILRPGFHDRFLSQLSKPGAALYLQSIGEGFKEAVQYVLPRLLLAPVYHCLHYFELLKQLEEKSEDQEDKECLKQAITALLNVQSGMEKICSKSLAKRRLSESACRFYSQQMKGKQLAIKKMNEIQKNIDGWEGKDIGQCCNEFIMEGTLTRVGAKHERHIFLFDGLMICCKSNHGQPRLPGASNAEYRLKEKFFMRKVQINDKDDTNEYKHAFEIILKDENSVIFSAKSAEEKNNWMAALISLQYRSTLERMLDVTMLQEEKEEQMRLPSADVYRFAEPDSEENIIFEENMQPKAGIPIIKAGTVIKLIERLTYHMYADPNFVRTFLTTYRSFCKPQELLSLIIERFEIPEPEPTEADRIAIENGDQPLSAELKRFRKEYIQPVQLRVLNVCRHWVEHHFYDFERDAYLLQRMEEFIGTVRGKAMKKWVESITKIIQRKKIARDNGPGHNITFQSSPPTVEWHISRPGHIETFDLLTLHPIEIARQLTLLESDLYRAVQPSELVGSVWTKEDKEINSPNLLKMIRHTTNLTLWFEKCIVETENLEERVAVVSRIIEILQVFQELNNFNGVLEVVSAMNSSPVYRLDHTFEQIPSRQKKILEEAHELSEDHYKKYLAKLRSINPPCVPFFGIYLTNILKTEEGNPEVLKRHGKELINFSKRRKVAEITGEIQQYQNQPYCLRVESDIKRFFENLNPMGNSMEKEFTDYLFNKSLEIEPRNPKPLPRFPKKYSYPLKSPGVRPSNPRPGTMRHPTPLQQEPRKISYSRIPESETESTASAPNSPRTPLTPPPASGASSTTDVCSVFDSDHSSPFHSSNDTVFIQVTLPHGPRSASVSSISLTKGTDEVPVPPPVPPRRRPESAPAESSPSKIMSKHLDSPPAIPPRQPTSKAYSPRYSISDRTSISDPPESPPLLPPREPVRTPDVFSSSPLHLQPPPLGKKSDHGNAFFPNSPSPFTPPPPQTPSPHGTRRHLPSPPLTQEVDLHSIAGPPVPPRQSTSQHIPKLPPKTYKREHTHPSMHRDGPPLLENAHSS

| Structure (SMILES) | half-life at 1 µM [1] | CLint scaled at 1 µM [1] | IC50 (SOS1) |
| --- | --- | --- | --- |
| C[C@@H](Nc1nnc(NC2(C)CC2)c2cc(=O)n(C3(C)CC3)cc12)c1cccc(C(F)F)c1F [Example 11, (R)-4-((1-(3-(difluoromethyl)-2-fluorophenyl)ethyl)amino)-6-(1-methylcyclopropyl)-1-((1-methylcyclopropyl)amino)pyrido[3,4-d]pyridazin-7(6H)-one] | 0.855 h | 25.8 mL/min/kg | 1.4 nM |
| CNc1nnc(N[C@H](C)c2cccc(C#N)c2C)c2cn(C3CC3)c(=O)cc12 [Example 38, (R)-3-(1-((6-cyclopropyl-1-(methylamino)-7-oxo-6,7-dihydropyrido[3,4-d]pyridazin-4-yl)amino)ethyl)-2-methylbenzonitrile] | 3.55 h | 9.7 mL/min/kg | 5 nM |
| Cc1c([C@@H](C)Nc2nnc(N3CCC3)c3cc(=O)n(C4CC4)cc23)cccc1C(F)(F)F.O=CO [Example 50, (R)-1-(azetidin-1-yl)-6-cyclopropyl-4-((1-(2-methyl-3-(trifluoromethyl)phenyl)ethyl)amino)pyr ido[3,4-d]pyridazin-7(6H)-one formate] | 2.18 h | 14.2 mL/min/kg | 5.8 nM |
| CC(C)C1CCN(c2nnc(N[C@H](C)c3cccc(C(F)F)c3F)c3cn(C4(C)CC4)c(=O)cc23)CC1 [Example 121, (R)-4-((1-(3-(difluoromethyl)-2-fluorophenyl)ethyl)amino)-1-(4-isopropylpiperidin-1-yl)-6-(1-methylcyclopropyl) pyrido[3,4-d]pyridazin-7(6H)-one] | > 5 h | < 7.23 mL/min/kg | 5.5 nM |
| C[C@@H](Nc1nnc(N2CCNCC2)c2cc(=O)n(C3(C)CC3)cc12)c1cccc(C(F)F)c1F [Example 78, (R)-4-((1-(3-(difluoromethyl)-2-fluorophenyl)ethyl)amino)-6-(1-methylcyclopropyl)-1-(piperazin-1-yl)pyrido[3,4-d]pyridazin-7(6H)-one] | 4.22 h | 8.4 mL/min/kg | 4.6 nM |
| C[C@@H](Nc1nnc(NC2CC2)c2cc(=O)n(C3(C)CC3)cc12)c1cccc(C(F)F)c1F [Example 10, (R)-1-(cyclopropylamino) -4-((1-(3-(difluoromethyl)-2-fluorophenyl)ethyl)amino)-6-(1-methylcyclopropyl) pyrido[3,4-d]pyridazin-7(6H)-one] | 0.483 h | 33.6 mL/min/kg | 5.8 nM |
| C[C@@H](Nc1nnc(N2CCC2)c2cc(=O)n(C3CC3)cc12)c1cccc(C(F)F)c1F [Example 15, (R)-1-(azetidin-1-yl)-6-cyclopropyl-4-((1-(3-(difluoromethyl)-2-fluorophenyl)ethyl)amino)pyrido[3,4-d]pyridazin-7(6H)-one] | 0.787 h | 27 mL/min/kg | 5.5 nM |
| C[C@@H](Nc1nnc(N2CC3(COC3)C2)c2cc(=O)n(C3(C)CC3)cc12)c1cccc(C(F)F)c1F [Example 190, (R)-4-((1-(3-(difluoromethyl)-2-fluorophenyl)ethyl)amino)-6-(1-methylcyclopropyl)-1-(2-oxa-6-azaspiro[3.3]heptan-6-yl)pyrido[3,4-d]pyridazin-7(6H)-one] |  |  | 4.2 nM |
| C[C@@H](Nc1nnc(N2CC3CCC(C2)O3)c2cc(=O)n(C3(C)CC3)cc12)c1cccc(C(F)F)c1F [Example 198, 1-(8-oxa-3-azabicyclo[3.2.1]octan-3-yl)-4-(((R)-1-(3-(difluoromethyl)-2-fluorophenyl)ethyl)amino)-6-(1-methylcyclopropyl) pyrido[3,4-d]pyridazin-7(6H)-one] |  |  | 13.6 nM |
| Cc1c(C#N)cccc1[C@@H](C)Nc1nnc(N2CC3CC3C2)c2cc(=O)n(C3(C)CC3)cc12 (stereo partly drawn) [Example 46, 3-((1R)-1-((1-(3-azabicyclo[3.1.0]hexan-3-yl)-6-(1-methylcyclopropyl)-7-oxo-6,7-dihydropyrido[3,4-d]pyridazin-4-yl)amino)ethyl)-2-methylbenzonitrile] |  |  | 9.3 nM |
| CCN(CC)c1nnc(N[C@H](C)c2cccc(C#N)c2C)c2cn(C3(C)CC3)c(=O)cc12 [Example 71, (R)-3-(1-((1-(diethylamino)-6-(1-methylcyclopropyl)-7-oxo-6,7-dihydropyrido[3,4-d]pyridazin-4-yl)amino)ethyl)-2-methylbenzonitrile] |  |  | 30.8 nM |
| C[C@@H](Nc1nnc(NCC(F)F)c2cc(=O)n(C3(C)CC3)cc12)c1cccc(C(F)F)c1F [Example 134, (R)-1-((2,2-difluoroethyl)amino)-4-((1-(3-(difluoromethyl)-2-fluorophenyl)ethyl)amino)-6-(1-methylcyclopropyl) pyrido[3,4-d]pyridazin-7(6H)-one] |  |  | 9.5 nM |
| C[C@@H](Nc1nnc(N2CC3CC3C2)c2cc(=O)n(C3(C)CC3)cc12)c1cccc(C(F)F)c1F (stereo partly drawn) [Example 21, 1-(3-azabicyclo[3.1.0]hexan-3-yl)-4-(((R)-1-(3-(difluoromethyl)-2-fluorophenyl)ethyl)amino)-6-(1-methylcyclopropyl) pyrido[3,4-d]pyridazin-7(6H)-one] |  |  | 6.9 nM |
| Cc1c(C#N)cccc1[C@@H](C)Nc1nnc(N2CCS(=O)(=O)CC2)c2cc(=O)n(C3CC3)cc12 [Example 44, (R)-3-(1-((6-cyclopropyl-1-(1,1-dioxidothiomorpholino)-7-oxo-6,7-dihydropyrido[3,4-d]pyridazin-4-yl)amino)ethyl)-2-methylbenzonitrile] |  |  | 44.2 nM |
